# Experimental data as given in patent US11452758B2, “Antimicrobial peptide derived from LL37 peptide and uses thereof” (INDUSTRY-ACADEMIC COOPERATION FOUNDATION, CHOSUN UNIVERSITY, priority 2018, dated 2022).
# Tests used:
# [1] = test system: Acinetobacter baumannii KCTC 2508; assay: Flow cytometry after PI staining (bacteria membrane); type: cell-based; conditions: peptide at concentration of MIC, 30 minutes at 37° C.
# Experimental: To determine whether or not the peptides prepared by the method of Example 1 have any effect on bacteria membrane, an analysis was made by flow cytometry.
# After that, the supernatant was removed by centrifuge (10,000 rpm) and stained with propidium iodide (PI, concentration of 10 μg/ml) for 30 minutes at 4° C. Thereafter, unbound propidium iodide was removed by centrifuge, and the problem of cell aggregation phenomenon was solved by adding physiological saline (PBS) in an amount of 1 ml.
# [2] = Cytotoxicity in normal cell line (MTT); type: cell-based, human; conditions: human
# Experimental: To determine the cytotoxicity of the peptides produced by the method of Example 1 in normal cell line, cytotoxicity was measured by using normal human keratinocyte cell line (HaCaT) and normal human fibroblast cell line (Hs27).
# Specifically, normal human keratinocyte (HaCaT) cells and normal human fibroblast (Hs27) cells, which have been cultured in DMEM medium containing 10% FBS (fetal bovine serum), were aliquoted in a microtiter plate to have 1×10^4 cells per well. After culturing them for 24 hours, the cells were subjected to a treatment with LL37, LL37-1, LL37-2, LL37-3 or LL37-4 peptide, each at concentration of 0.5, 1, 2, 4, 8, 16 or 32 μM/well, followed by reaction for 24 hours in a 5% CO2 incubator. After culture, a reaction solution containing 5 mg/ml MTT (Thiazolyl Blue Tetrazolium Bromide) dissolved in phosphate buffered saline (PBS) was added in an amount of 10 μl to each well and the reaction was allowed to occur for 1 hour. After that, the supernatant was discarded, and, by dissolving MTT crystals that are formed by adding 200 μl DMSO (dimethyl sulfoxide), the absorbance at 570 nm was measured to determine the cell survival ability.
# [3] = test system: Acinetobacter baumannii KCTC 2508; type: cell-based; conditions: peptide 100 μg/ml with 10.7 nM trypsin, 10 minutes at 37° C.; A. baumannii KCTC 2508
# Experimental: To determine the activity of the peptides, which have been prepared by the method of Example 1, in the presence of trypsin as one type of proteases, peptide stability against protease was determined by radial diffusion assay.
# Specifically, among the bacterial strains that are described in the above Table 2, Acinetobacter baumannii KCTC 2508 cells were cultured to a mid-log phase in MHB medium, and, after diluting the cells to a cell concentration of 2×10^5 cells/10 ml, the cells were admixed with agarose which has been adjusted to final concentration of 1% and then evenly spread and solidified on a Petri dish. After that, the peptide adjusted to a concentration of 100 μg/ml was admixed with 10.7 nM trypsin and reacted for 10 minutes at 37° C. After applying a paper disk (diameter: 6 mm) on the solidified Petri dish, the peptide obtained after the reaction with trypsin was aliquoted thereto in an amount of 25 μl. After culture for 18 hours at 37° C., diameter of the clear zone around the paper disk was measured so that the level of antimicrobial activity for Acinetobacter baumannii KCTC 2508 was determined.
# [4] = test system: Human macrophage cells (U937) infected with Acinetobacter baumannii KCTC 2508; assay: Expression of inflammatory cytokines, Western blot and real time RT-PCR; type: cell-based; conditions: U937 infected with A. baumannii KCTC 2508, peptide added 1 hour after infection, sample after 9 hours
# Experimental: To see whether or not a change in expression of inflammatory cytokines in macrophage is caused by the peptides that are prepared by the method of above Example 1, determination was made by Western blot and real time reverse transcription polymerase chain reaction.
# Specifically, Acinetobacter baumannii KCTC 2508 cells were cultured to a mid-log phase in MHB medium, and then diluted to a cell concentration of 1×10^7 cells/ml in physiological saline. Human macrophage cells (U937) were then infected with the resulting cells in time-dependent manner to yield the first sample, and another macrophage cells were infected with Acinetobacter baumannii KCTC 2508 cells, which have been diluted to a concentration of 1×10^7 cells, and added with, 1 hour after the infection, mother peptide LL37 or the homologous peptide to collect the second sample after 9 hours. Both collected samples were treated with cell lysis buffer to obtain the supernatant (sup) and pellet (lysate). Thereafter, by Western blot and real time reverse transcription polymerase chain reaction, a change in the expression level of inflammatory cytokines was examined.
# S. typhimurium KCTC 1925 = type: cell-based, Salmonella typhimurium; conditions: KCTC 1925, 18 h
# From the text: To compare the antimicrobial activity among the peptides produced by the method of Example 1, the inventors of the present invention measured the minimal growth inhibitory concentration (MIC), which is minimum concentration of the peptide not allowing any […] of bacterial cells.
# Specifically, the bacterial strains described in the following Table 2 were purchased and cultured to a mid-log phase in MHB (Mueller Hinton Broth) medium. Then, after dilution to bacterial cell concentration of 2×10^5 cells/50 μl, the cells were inoculated to a microtiter plate (NUNC, USA). Thereafter, LL37-1, LL37-2, LL37-3 or LL37-4 peptide which has been synthesized in Example 1 above was subjected to serial dilution, ½ times for each, in a 96-well plate. After adding the peptides in an amount of 50 μl to the cell plate, the cells were cultured for 18 hours at 37° C. By using a microtiter plate reader (Merck Elisa reader, Germany), the absorbance was measured at a wavelength of 600 nm to determine the MIC value of each bacterial strain. As a control group, LL37 as a mother peptide was used and subjected to the same process as above to determine the MIC value of each strain.
smiles,measurement,setting,value
CC[C@H](C)[C@H](NC(=O)[C@H](CCCCN)NC(=O)[C@H](CCC(=O)O)NC(=O)[C@H](CCCCN)NC(=O)[C@H](CO)NC(=O)[C@H](CCCCN)NC(=O)[C@H](CCCNC(=N)N)NC(=O)[C@H](Cc1ccccc1)NC(=O)[C@H](Cc1ccccc1)NC(=O)[C@H](CC(=O)O)NC(=O)CNC(=O)[C@H](CC(C)C)NC(=O)[C@@H](N)CC(C)C)C(=O)NCC(=O)N[C@@H](CCCCN)C(=O)N[C@@H](CCC(=O)O)C(=O)N[C@@H](Cc1ccccc1)C(=O)N[C@@H](CCCCN)C(=O)N[C@@H](CCCNC(=N)N)C(=O)N[C@H](C(=O)N[C@H](C(=O)N[C@@H](CCC(N)=O)C(=O)N[C@@H](CCCNC(=N)N)C(=O)N[C@H](C(=O)N[C@@H](CCCCN)C(=O)N[C@@H](CC(=O)O)C(=O)N[C@@H](Cc1ccccc1)C(=O)N[C@@H](CC(C)C)C(=O)N[C@@H](CCCNC(=N)N)C(=O)N[C@@H](CC(N)=O)C(=O)N[C@@H](CC(C)C)C(=O)N[C@H](C(=O)N1CCC[C@H]1C(=O)N[C@@H](CCCNC(=N)N)C(=O)N[C@H](C(=O)N[C@@H](CCC(=O)O)C(=O)N[C@@H](CO)C(N)=O)[C@@H](C)O)C(C)C)[C@@H](C)CC)C(C)C)[C@@H](C)CC [LL37],"effect on bacteria membrane (PI fluorescence, flow cytometry)",[1],bacteria membrane was damaged
same,"viability at 24 h, 0.5 µM",[2]; HaCaT keratinocyte cells,99%
same,"viability at 24 h, 1 µM",[2]; HaCaT keratinocyte cells,99%
same,"viability at 24 h, 2 µM",[2]; HaCaT keratinocyte cells,96%
same,"viability at 24 h, 4 µM",[2]; HaCaT keratinocyte cells,98%
same,"viability at 24 h, 8 µM",[2]; HaCaT keratinocyte cells,99%
same,"viability at 24 h, 16 µM",[2]; HaCaT keratinocyte cells,83%
same,"viability at 24 h, 32 µM",[2]; HaCaT keratinocyte cells,17%
same,"viability at 24 h, 0.5 µM",[2]; Hs27 fibroblast cells,95%
same,"viability at 24 h, 1 µM",[2]; Hs27 fibroblast cells,90%
same,"viability at 24 h, 2 µM",[2]; Hs27 fibroblast cells,90%
same,"viability at 24 h, 4 µM",[2]; Hs27 fibroblast cells,89%
same,"viability at 24 h, 8 µM",[2]; Hs27 fibroblast cells,90%
same,"viability at 24 h, 16 µM",[2]; Hs27 fibroblast cells,82%
same,"viability at 24 h, 32 µM",[2]; Hs27 fibroblast cells,19%
same,antimicrobial activity after reaction with trypsin,[3],did not exhibit any antimicrobial activity
same,expression level of HMGB-1 and late cytokine (IL-1b and TNF-α),[4],has increased more
same,Minimal inhibitory concentration,S. typhimurium KCTC 1925,32 µM
